{"source": "patent US20250144050A1", "about": "“AMINOTHIOL-CONJUGATES, COMPOSITIONS, AND METHODS OF USE THEREOF” (THE BURLINGTON HC RESEARCH GROUP, INC., priority 2021, published 2025)", "key": {"HEK-293t cells": {"tested_on": "HEK-293t cells", "format": "cell-based", "protocol": "(§1) To determine potential cytostatic or cytocidal effects of BRG prodrugs in immortalized, non-tumorigenic cells, Vero, HEK-293t, LP9, and HPM3 cells were exposed to 4SP65 while only Vero cells also were treated with 1LP65. […] Comparisons across other dose-response metrics could not be made because such levels of effects were not induced in NHMECs exposed to 4SP65. […] Since cytostatic and cytolytic effects at the TGI and LC50/99 levels were induced in Vero cells exposed to 1LP65 but not in NHMECs, there is a significant difference in the effects of 1LP65 in Vero cells compared to NHMECs, but p values based upon t-test evaluations cannot be defined due to lack of numerical data."}, "LP9 cells": {"tested_on": "LP9 cells", "format": "cell-based", "protocol": "as §1"}, "H1437 NSCLC cells": {"tested_on": "H1437 NSCLC cells", "assay": "Alamar Blue (resazurin) cellular reducing capacity", "format": "cell-based, human", "conditions": "until cell numbers reduced to approximately 50% of controls", "excerpt": "The aminothiol-conjugates of the present disclosure (e.g., 4SP65 and 1LP65) are disulfides that require reduction by glutathione or thioredoxin for the two constituent molecules (WR1065 and PEG-SH scaffold) to be released. […] After an aminothiol-conjugate of the present disclosure (e.g., 4SP65 and 1LP65) enters the cytoplasm, either glutathione or thioredoxin reduces the BRG disulfide bond (Rxn #1) to yield reduced WR1065 and PEG-SH scaffold. In normal cells with a reducing cytosolic redox balance, evidence of formation of free radical intermediates during this reaction has not been reported, but formation of […] has been reported (Nagy, P., “Kinetics and Mechanisms of Thiol-Disulfide Exchange Covering Direct Substitution and Thiol Oxidation-Mediated Pathways,” Antioxid Redox Signal 18 (13): 1623-1641 (2013), which is hereby incorporated by reference in its entirety). Conversely, in cancer cells where the cellular environment is shifted towards oxidizing conditions, there is evidence that reactive species such as thiyl free radicals can be formed (Nagy, P., “Kinetics and Mechanisms of Thiol-Disulfide Exchange Covering Direct Substitution and Thiol Oxidation-Mediated Pathways,” Antioxid. Redox Signal 18 (13): 1623-1641 (2013), which is hereby incorporated by reference in its entirety), which can have adverse effects in neoplastic cells. […]"}}, "data": [{"substance": "4-star PEG-S-S-WR1065 [4SP65]", "values": [{"measurement": "CC50", "setting": "HEK-293t cells", "value": 60.6, "unit": "µM"}, {"measurement": "GI50", "setting": "HEK-293t cells; HEK-293t", "value": 15.8, "unit": "µM"}, {"measurement": "LC99", "setting": "HEK-293t cells; HEK-293t", "value": 62.4, "unit": "µM"}, {"measurement": "TGI", "setting": "HEK-293t cells; HEK-293t", "value": 58.8, "unit": "µM"}, {"measurement": "CC50", "setting": "LP9 cells", "value": 19, "unit": "µM"}, {"measurement": "GI50", "setting": "LP9 cells; LP9", "value": 9.2, "unit": "µM"}, {"measurement": "TGI", "setting": "LP9 cells; LP9", "value": 13.5, "unit": "µM"}, {"measurement": "cellular reducing capacity relative to control cells", "setting": "H1437 NSCLC cells", "value": "~100", "unit": "%"}]}]}
